Converted amounts (≈) assume the structure as drawn.
Tests used:
[1] = Aqueous solubility of compound at pH 7.4; conditions: buffer
[2] = Aqueous solubility of compound at pH 7; conditions: buffer
[3] = tested on: Human immunodeficiency virus 1; assay: Antiviral activity against HIV1 IIIB harboring Y188L mutant infected in MT4 cells assessed as reduction in virus induced cytopathic effect incubated for 5 days by MTT method; format: functional, organism-based; conditions: Human immunodeficiency virus 1, IIIB, MT4, 120 h
[4] = tested on: Human immunodeficiency virus 1; assay: Antiviral activity against HIV1 IIIB infected in MT4 cells assessed as reduction in virus induced cytopathic effect incubated for 5 days by MTT method; format: functional, organism-based; conditions: Human immunodeficiency virus 1, IIIB, MT4, 120 h
[5] = Aqueous solubility of compound at pH 7.4 incubated for 24 hrs under shaking condition by HPLC method; format: physicochemical; conditions: buffer
[6] = tested on: Human immunodeficiency virus 1; assay: Antiviral activity against HIV1 IIIB harboring RES056 mutant infected in MT4 cells assessed as reduction in virus induced cytopathic effect incubated for 5 days by MTT method; format: functional, organism-based; conditions: Human immunodeficiency virus 1, IIIB, MT4, 120 h
[7] = tested on: Human immunodeficiency virus 1; assay: Antiviral activity against HIV1 IIIB harboring Y188L mutant infected in MT4 cells assessed as fold increase in reduction of virus induced cytopathic effect incubated for 5 days by MTT method relative to A6N36; format: functional; conditions: time 5 day
[8] = molecular target: Human immunodeficiency virus type 1 reverse transcriptase (Human immunodeficiency virus 1, UniProt Q72547); assay: Inhibition of HIV-1 reverse transcriptase assessed as reduction in biotin-dUTP incorporation incubated for 2 hrs in presence of template and viral nucleotides by ELISA
[9] = tested on: Human immunodeficiency virus 1; assay: Antiviral activity against HIV1 IIIB harboring L100I mutant infected in MT4 cells assessed as reduction in virus induced cytopathic effect incubated for 5 days by MTT method; format: functional, organism-based; conditions: Human immunodeficiency virus 1, IIIB, MT4, 120 h
[10] = tested on: Human immunodeficiency virus 1; assay: Antiviral activity against HIV1 IIIB harboring E138K mutant infected in MT4 cells assessed as reduction in virus induced cytopathic effect incubated for 5 days by MTT method; format: functional, organism-based; conditions: Human immunodeficiency virus 1, IIIB, MT4, 120 h
[11] = tested on: Human immunodeficiency virus 1; assay: Antiviral activity against HIV1 IIIB harboring K103 N mutant infected in MT4 cells assessed as reduction in virus induced cytopathic effect incubated for 5 days by MTT method; format: functional, organism-based; conditions: Human immunodeficiency virus 1, IIIB, MT4, 120 h
[12] = tested on: Human immunodeficiency virus 1; assay: Antiviral activity against HIV1 IIIB harboring F227L/V106A double mutant infected in MT4 cells assessed as reduction in virus induced cytopathic effect incubated for 5 days by MTT method; format: functional, organism-based; conditions: Human immunodeficiency virus 1, IIIB, MT4, 120 h
[13] = tested on: Human immunodeficiency virus 1; assay: Antiviral activity against HIV1 IIIB harboring Y181C mutant infected in MT4 cells assessed as reduction in virus induced cytopathic effect incubated for 5 days by MTT method; format: functional, organism-based; conditions: Human immunodeficiency virus 1, IIIB, MT4, 120 h
[14] = Aqueous solubility of compound at pH 2 incubated for 24 hrs under shaking condition by HPLC method; format: physicochemical; conditions: buffer
[15] = Cytotoxicity against human MT4 cells assessed as reduction in cell viability incubated for 5 days by MTT method; format: toxicity, cell-based; conditions: time 5 day
[16] = Selectivity index, ratio of CC50 for human MT4 cells to EC50 for antiviral activity against HIV1 IIIB infected in MT4 cells; format: toxicity, cell-based; conditions: read-out: Ratio CC50/EC50
[17] = Aqueous solubility of compound at pH 7 incubated for 24 hrs under shaking condition by HPLC method; format: physicochemical; conditions: buffer
[18] = tested on: Human immunodeficiency virus 1; assay: Antiviral activity against HIV1 IIIB harboring RES056 mutant infected in MT4 cells assessed as fold increase in reduction of virus induced cytopathic effect incubated for 5 days by MTT method relative to A6N36; format: functional; conditions: time 5 day
[19] = tested on: Human immunodeficiency virus 1; assay: Antiviral activity against HIV1 IIIB harboring F227L/V106A double mutant infected in MT4 cells assessed as fold increase in reduction of virus induced cytopathic effect incubated for 5 days by MTT method relative to A6N36; format: functional; conditions: time 5 day

solubility [1] [µg/mL]	solubility [2] [µg/mL]	Compound	EC50 [3] [nM]	EC50 [4] [nM]	solubility thermodynamic at 24 h [5] [µg/mL]	EC50 [6] [nM]	fold change (FC) [7]	IC50 [8] [nM]	EC50 [9] [nM]	EC50 [10] [nM]	EC50 [11] [nM]	EC50 [12] [nM]	EC50 [13] [nM]	solubility thermodynamic at 24 h [14] [µg/mL]	CC50 at 120 h [15] [µM]	selectivity ratio [16]	solubility thermodynamic at 24 h [17] [µg/mL]	fold change (FC) [18]	fold change (FC) [19]
< 1	< 1	Cc1cc(/C=C/C#N)cc(C)c1Nc1ccnc(Nc2ccc(C#N)cc2)n1 [RILPIVIRINE]																	
		Cc1cc(/C=C/C#N)cc(C)c1Oc1nc(NC2CCN(Cc3cn(CC(N)=O)nn3)CC2)nc2sccc12	39	4	20.1 (≈ 37 µM)	89	3	118	6	14	5	51	17	228 (≈ 419 µM)	62.5	14500	22.5 (≈ 41.4 µM)		
		Cc1cc(/C=C/C#N)cc(C)c1Oc1nc(NC2CCN(Cc3cn(CC(=O)NC4CCOCC4)nn3)CC2)nc2sccc12	29	3	23.1 (≈ 36.8 µM)	62	3	220	5	18	5	47	15	1610 (≈ 2570 µM)	16	4980	22.5 (≈ 35.8 µM)		
		CNC(=O)Cn1cc(CN2CCC(Nc3nc(Oc4c(C)cc(/C=C/C#N)cc4C)c4ccsc4n3)CC2)nn1	30	5	20.1 (≈ 36 µM)	58	3	134	4	9	3	28	8	733 (≈ 1310 µM)	18.7	3990	23.6 (≈ 42.3 µM)	2	2

Source: ChEMBL document CHEMBL5614409, “Discovery of potent HIV-1 NNRTIs by CuAAC click-chemistry-based miniaturized synthesis, rapid screening and structure optimization” (Eur J Med Chem, 2024)
